Measurements as given in PubChem BioAssay AID179 (DTP/NCI, 2004).
Activity calls are given as the source filed them.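 How the source made its calls: active means compounds giving half or more protection of infected cells from virus-caused growth loss, again on retest; inactive means the rest.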

Tested on: CEM cells HIV-1 protection, formazan growth assay
Test: NCI AIDS Antiviral Assay
Settings: for IC50: measured here: growth of uninfected CEM cells
How it was run: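 Screen of anti-HIV-1 activity in human CEM cells using a formazan-based growth measurement at five drug concentrations. Hits with 50% or greater protection were repeated, and confirmation required reproducible complete protection.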

| SMILES | EC50 | IC50 | outcome |
| --- | --- | --- | --- |
| O=C(O)CCSCc1cc(C(=O)Nc2ccc(/C=C/c3ccc(NC(=O)c4cc(CSCCC(=O)O)c5ccccc5c4O)cc3S(=O)(=O)O)c(S(=O)(=O)O)c2)c(O)c2ccccc12 | 83.2 µM | 162 µM | – |
| O=C(O)CCCn1nnc2c(=O)[nH][nH]c(=O)c21 | > 200 µM | > 200 µM | – |
| N#C/C(=C\c1ccccc1)S(=O)(=O)/C(C#N)=C/c1ccc(O)c(O)c1 | > 200 µM | 29.5 µM | – |
| Cc1nc(N)c(N2CCN(C(=O)O)CC2)c(=O)[nH]1 | > 200 µM | > 200 µM | – |
| CCc1c(C)c(C#N)c(=S)n(C2OC(CO)C(O)C(O)C2O)c1C (configuration not stated) | > 200 µM | > 200 µM | – |
| O=C(NCCCN1CC2CCCC2C1)C(C1CCCCC1)C1CCCCC1 (configuration not stated) | > 200 µM | 11.5 µM | – |
| CC1C(=O)c2c(O)cc(O)cc2O[C@@H]1C (some centres not stated) | > 200 µM | > 200 µM | – |
| O=[N+]([O-])c1ccc2nc3n(c2c1)C(c1c(F)cccc1F)SC3 (configuration not stated) | > 200 µM | > 200 µM | – |
| O/N=C(\CSSC/C(=N/O)c1ccc(Cl)cc1)c1ccc(Cl)cc1 | > 200 µM | 10.7 µM | – |
| Cc1cc2c(cc1-c1cc3c(cc1C)C(C(C)C)=C(O)C(=O)/C3=C\Nc1nc(-c3ccccc3)cs1)/C(=C/Nc1nc(-c3ccccc3)cs1)C(=O)C(O)=C2C(C)C | > 100 µM | 13.2 µM | – |
| CCc1c2c(cc3c1CC1(C3)Cc3cc4c(c(C(=O)OC)c3C1)CCCC4)CCCC2 (configuration not stated) | > 200 µM | 166 µM | – |
| CC1(O)Oc2ccc3ccccc3c2C=C1C(N)=O (configuration not stated) | > 200 µM | 182 µM | – |
| CCOC(=O)c1cc2nc3ccccc3c(=O)n2c2ccccc12 | > 200 µM | > 200 µM | – |
| CN1C(=O)CC(CC(=O)C2CCCCC2=O)CC1=O (configuration not stated) | > 200 µM | > 200 µM | – |
| C/C(=N/NC(=S)Nc1ccc(Cl)cc1)c1cccc(/C(C)=N\NC(=S)Nc2ccc(Cl)cc2)n1 | > 200 µM | 6.76 µM | – |
| O=C(CC(=O)n1nc(-c2ccccc2)c(N=Nc2ccccc2C(=O)O)c1-c1ccccc1)Nc1ccc(Cl)cc1 | > 200 µM | 77.6 µM | – |
| COc1cccc(NC(=S)/C(=C(/[O-])c2ccc(C)cc2)[n+]2ccccc2)c1 | > 200 µM | > 200 µM | – |
| CC(=O)/C(C=Nc1c(C)n(C)n(-c2ccccc2)c1=O)=C(/C)O | > 200 µM | > 200 µM | – |
| c1ccc2c(c1)nn1c3ccc4nonc4c3[n-][n+]21 | – | – | inactive |
| Nc1ncnc2c1ncn2C1OC2CSCC2(O)C1O (configuration not stated) | > 200 µM | 138 µM | – |
| CC(O)C(NC(=O)c1ccccc1)C(=O)N(Cc1ccccc1)Cc1ccccc1 (configuration not stated) | > 17.8 µM | > 17.8 µM | – |

| SMILES | EC50 | IC50 | outcome |
| --- | --- | --- | --- |
| Cc1ccc(NC(=O)C(=O)C(C(=O)c2ccc3ccccc3c2)C2OC(=O)c3ccccc32)cc1C (configuration not stated) | > 53.7 µM | 25.7 µM | – |
| CCOC(=O)/C(=C/c1ccc(Br)cc1)C(=O)c1ccccc1 | > 10.5 µM | > 10.5 µM | – |
| O=C1c2ccccc2S[C@@H](O)[C@@H]2CCCN12 | – | – | inactive |
| COc1ccc2c(c1)-c1nc(=S)n(CCCN(C)C)c3ccc([N+](=O)[O-])c(c13)N2 | > 2 µM | 0.389 µM | – |
| CC(CC(=O)N1C2CC3CCC2(CS1(=O)=O)C3(C)C)[Si](C)(C)C (configuration not stated) | > 200 µM | 74.1 µM | – |
| COc1ccc(-c2nc3c(nc2-c2ccc(OC)cc2)N(C)S(=O)(=O)N=C3N)cc1 | > 200 µM | 11.2 µM | – |
| Cc1cn(CC2OC(CO)C(CO)O2)c(=O)[nH]c1=O (configuration not stated) | > 457 µM | > 457 µM | – |
| CCOC(=O)/C(O)=C1\C(=O)N(C)C(=O)C1c1ccc(OC)c(OC)c1 (configuration not stated) | – | – | inactive |
| Cc1cc(C)n(C(=C(C(Cl)=C(Cl)Cl)[N+](=O)[O-])n2nc(C)cc2C)n1 | > 200 µM | 4.37 µM | – |
| OC1OCC(COc2cc(Cl)c(Cl)cc2Cl)OC1O (configuration not stated) | > 30.2 µM | > 30.2 µM | – |
| [O-][n+]1c(-c2ccccc2)oc2ccccc21 | > 9.55 µM | > 9.55 µM | – |
| CC(C)(C)OC(=O)NC1CCC[C@H]1O (some centres not stated) | – | – | inactive |
| FC(F)(F)c1nc(Cl)nc2nc[nH]c12 | > 200 µM | 97.7 µM | – |
| OCc1cn(C(c2ccccc2)(c2ccccc2)c2ccccc2)cn1 | 195 µM | > 200 µM | – |
| COC(=O)C1=C(C(=O)OC)SC(=C2C(=O)c3ccccc3-c3ccccc32)S1 | – | – | inactive |
| CNc1ccc(C)cc1S(=O)(=O)c1ccc(OC)cc1 | > 200 µM | 95.5 µM | – |
| CCOC(=O)/C(F)=C/c1cccc(C)c1 | > 126 µM | > 126 µM | – |
| C=CCC(N)Cc1ccccc1 (configuration not stated) | > 200 µM | > 200 µM | – |
| O=C1c2scc(-c3ccc(Cl)cc3)c2-n2cccc21 | > 200 µM | > 200 µM | – |
| Cc1cc(N(CCC#N)S(=O)(=O)c2ccccc2)ccc1C=O | > 110 µM | > 110 µM | – |
| O=C(O)CN(CCNC(=O)OCC1c2ccccc2-c2ccccc21)CCNC(=O)OCC1c2ccccc2-c2ccccc21 | > 200 µM | 39.8 µM | – |

| SMILES | EC50 | IC50 | outcome |
| --- | --- | --- | --- |
| CC(=O)Nc1ccc2c(C)c3c(nc2n1)[nH]c1ccccc13 | > 200 µM | 25.7 µM | – |
| CCN(CC)C(=O)COc1cc2c(O)c3c(O)c(C)c4c(c13)C(=O)C(C)(O/C=C/C(OC)C(C)C(O)C(C)C(O)C(C)C(O)C(C)/C=C/C=C(\C)C(=O)N2)O4 (configuration not stated) | > 200 µM | 29.5 µM | – |
| O=C1NC(O)c2cc(Cl)ccc2O1 (configuration not stated) | – | – | inactive |
| N#CCC(=O)N1CCCCCCC1 | > 1380 µM | > 1380 µM | – |
| CC1(C)CC(=O)C(/C=N/c2nc(-c3cccc([N+](=O)[O-])c3)cs2)=C(O)C1 | > 200 µM | 8.32 µM | – |
| CC(C)(C)c1ccc(OP(=S)(NN)Oc2ccc(C(C)(C)C)cc2)cc1 | > 61.7 µM | 30.2 µM | – |
| CC(=O)NNc1nc(C)c(C(/C=C/c2ccc(Cl)cc2)=N\NS(=O)(=O)c2ccc(C)cc2)s1 | > 2.88 µM | > 2.88 µM | – |
| [N-]=[N+]=NC1C2CC3CC(C2)CC1C3 (configuration not stated) | > 77.6 µM | > 77.6 µM | – |
| CCOC(=O)C1C(=O)CC(O)(c2ccccc2)C(C(=O)OCC)C1c1ccc(OC)cc1 (configuration not stated) | > 200 µM | 5.01 µM | – |
| O=C1OC(=O)C2=C1C(c1cccs1)C=C(c1cccnc1)N2c1ccncc1 (configuration not stated) | > 200 µM | 9.77 µM | – |
| CSC1=C(C)S/C(=C\c2ccc(/C=C3\SC(C)=C(SC)S3)cc2)S1 | – | – | inactive |
| c1ccc(P2(c3ccccc3)=NSN=S=N2)cc1 | > 200 µM | 74.1 µM | – |
| C=C(CO)[C@H]1Oc2ccc(C(C)=O)cc2[C@@H]1O | > 200 µM | > 200 µM | – |
| O=C1C(C2CCCCC2)CCCC1(CO)CO (configuration not stated) | – | – | inactive |
| N#CCCN(c1ccc(/C=C2\N=C(Cc3ccccc3)OC2=O)cc1)S(=O)(=O)c1ccccc1 | 240 µM | 275 µM | – |
| Nc1ncnc2c1ncn2[C@@H]1C[C@H]1CO | > 200 µM | > 200 µM | – |
| CC1=C(C(=O)NCc2ccccc2)C(c2ccc([N+](=O)[O-])cc2)C(C(=O)NCc2ccccc2)=C(C)N1 | > 14.5 µM | > 14.5 µM | – |
| Cc1nc2ccccn2c1N=Nc1ccc(C(=O)NN)cc1 | > 33.9 µM | > 33.9 µM | – |
| CCC1(C)NN=c2s/c(=C/c3ccc(OC)cc3)c(=O)n2N1 (configuration not stated) | – | – | inactive |
| COC1=CC(=O)[C@@]2(C)C(C)[C@H](c3ccccc3)[C@H]2C1=O (some centres not stated) | > 251 µM | > 251 µM | – |
| CC(CC(=O)N[C@H](C[C@@H](C)C(Cl)(Cl)Cl)c1nccs1)C(Cl)(Cl)Cl (some centres not stated) | – | – | active |

| SMILES | EC50 | IC50 | outcome |
| --- | --- | --- | --- |
| CN(C)c1ccc(/C=N\N2C(=O)c3ccccc3C2=O)cc1 | > 123 µM | > 123 µM | – |
| CCN(CC)C(C)(O)CN (configuration not stated) | > 200 µM | > 200 µM | – |
| COC(Cc1cc(C(O)(c2ccc(C(C)(C)C)cc2)c2cc(CC(OC)(c3cc(C(OC)(c4ccc(C(C)(C)C)cc4)c4ccc(C(C)(C)C)cc4)c(C)cc3C)c3cc(C(OC)(c4ccc(C(C)(C)C)cc4)c4ccc(C(C)(C)C)cc4)c(C)cc3C)c(C)cc2C)c(C)cc1C)(c1cc(C(OC)(c2ccc(C(C)(C)C)cc2)c2ccc(C(C)(C)C)cc2)c(C)cc1C)c1cc(C(OC)(c2ccc(C(C)(C)C)cc2)c2ccc(C(C)(C)C)cc2)c(C)cc1C | – | – | inactive |
| O=C1Cc2c([nH]c3ccccc23)C2(CC3CCCCN13)OCCO2 (configuration not stated) | > 200 µM | 182 µM | – |
| COc1ccc(/C(C#N)=C/c2cccc([N+](=O)[O-])c2)cc1 | > 200 µM | > 200 µM | – |
| Cc1nc2c(nc1C)C(=O)C(Br)=CC2=O | – | – | inactive |
| CN(CCC#N)c1ccc(/C=C(\C#N)c2cccc(C(F)(F)F)c2)cc1 | > 200 µM | 3.63 µM | – |
| Nc1c(N=Nc2ccc(/C=C/c3ccc(N=Nc4cc(S(=O)(=O)O)c5ccccc5c4N)cc3S(=O)(=O)O)c(S(=O)(=O)O)c2)cc(S(=O)(=O)O)c2ccccc12 | 8.71 µM | 77.6 µM | – |
| N#C/C(=C/n1c(=S)[nH]c2ccc([N+](=O)[O-])cc21)C(N)=O | > 200 µM | > 200 µM | – |
| COc1cc2c(cc1OC)[C@H]1C(=O)c3cc4c(cc3[C@H]1N(C)C2=O)OCO4 | > 37.2 µM | 0.479 µM | – |
| C(=C\c1ccc2ccccc2n1)/c1ccc2c(c1)OCO2 | > 200 µM | > 200 µM | – |
| CC1=CC(C)(C)SC(SSSSC2=NC(C)=CC(C)(C)S2)=N1 | > 200 µM | 29.5 µM | – |
| Cc1cccc2c(N)c3cccc(C(=O)NCC[N+](C)(C)Cc4ccccc4[N+](=O)[O-])c3nc12 | > 100 µM | 3.55 µM | – |
| O=C(Nc1ccc(C2=NC3CCCCC3N2)cc1)c1ccc(C(=O)Nc2ccc(C3=NC4CCCCC4N3)cc2)cc1 (configuration not stated) | > 200 µM | 9.33 µM | – |
| Cc1ccc(-n2cc(-c3ccc(Cl)cc3)c3c(NNC(=S)NCc4ccccc4)ncnc32)cc1 | > 200 µM | 7.59 µM | – |
| C[C@H](CCC(=O)O)[C@H]1CC[C@H]2[C@@H]3C(=O)C[C@@H]4C[C@H](O)CC[C@]4(C)[C@H]3C[C@H](O)[C@]12C | > 200 µM | > 200 µM | – |
| O=C1c2ccccc2C(=O)c2c1cccc2-n1nnc2cc(Cl)c(Cl)cc21 | – | – | inactive |
| Cn1c(=O)c2sc3c4sc5c(=O)n(C)c6ccccc6c5c4sc3c2c2ccccc21 | > 200 µM | > 200 µM | – |
| CCCCCCCCCCCCCCCCOC[C@H](COC(c1ccccc1)(c1ccccc1)c1ccccc1)O[P+](=S)OC (some centres not stated) | > 100 µM | 57.5 µM | – |
| CCC1(CC)C(=O)NC(=S)N=C1N | – | – | inactive |
